Assay results taken from PubChem BioAssay (NCI).
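Grown in 96-well plates, cells were treated for 48 hours with each compound at five concentrations. Insufficient inhibition: endpoint recorded as highest concentration tested. GI50 marks 50% less growth. TGI is the concentration that stops growth completely.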

Key:
Experiment in all cases: growth of human tumour cells (NCI), 48 h
HS 578T breast = test system: HS 578T breast
NCI-H522 lung = test system: NCI-H522 lung
MDA-MB-435 = test system: MDA-MB-435
HCC-2998 colon = test system: HCC-2998 colon
DU-145 prostate = test system: DU-145 prostate
M14 melanoma = test system: M14 melanoma
OVCAR-8 ovarian = test system: OVCAR-8 ovarian
NCI-H23 lung = test system: NCI-H23 lung
HCT-116 colon = test system: HCT-116 colon
CCRF-CEM leukemia = test system: CCRF-CEM leukemia

SMILES | TGI (HS 578T breast) [µM] | TGI (NCI-H522 lung) [µM] | TGI (MDA-MB-435) [µM] | TGI (HCC-2998 colon) [µM] | TGI (DU-145 prostate) [µM] | TGI (M14 melanoma) [µM] | TGI (OVCAR-8 ovarian) [µM] | TGI (NCI-H23 lung) [µM] | TGI (HCT-116 colon) [µM] | TGI (CCRF-CEM leukemia) [µM] | GI50 (NCI-H522 lung) [µM] | GI50 (HCC-2998 colon) [µM] | GI50 (M14 melanoma) [µM] | GI50 (OVCAR-8 ovarian) [µM] | GI50 (NCI-H23 lung) [µM] | GI50 (HCT-116 colon) [µM] | GI50 (HS 578T breast) [µM] | GI50 (MDA-MB-435) [µM] | GI50 (DU-145 prostate) [µM] | GI50 (CCRF-CEM leukemia) [µM]
O=C(O)c1ccccc1-c1ccccc1C(=O)Nc1ccc2c(c1)Cc1ccccc1-2 | > 100 | 55.2 | > 100 | 33.4 | > 100 | 41.6 | > 100 | 36.6 | 35.9 |  |  |  |  |  |  |  |  |  |  | 
OC1=CN=C(C2CC2)Oc2ccccc21 |  |  |  | > 100 |  | > 100 | > 100 | > 100 | > 100 | > 100 |  |  |  |  |  |  |  |  |  | 
CC(C)(C)C1CCP(=O)(c2ccccc2)CC1 (stereo not drawn) |  | > 100 |  | > 100 |  | > 100 | > 100 | > 100 | > 100 | > 100 |  |  |  |  |  |  |  |  |  | 
CC(N)CN.CC(N)CN.[Cl-].[O]=[Os+2]=[O] (stereo not drawn) |  | > 100 |  | > 100 |  | > 100 | > 100 | > 100 | > 100 |  | 30.9 | > 100 | > 100 | 96.2 | > 100 | 36.5 |  |  |  | 
COC(=O)[C@H]1CC(=O)C=C2CCCC21 (stereo partly drawn) |  | > 100 |  | > 100 |  | > 100 | > 100 | > 100 | > 100 | > 100 |  |  |  |  |  |  |  |  |  | 
CC1=C(C(=O)Nc2cccc(C(F)(F)F)c2)C(c2ccccc2F)C(C(=O)Nc2cccc(C(F)(F)F)c2)=C(C)N1 |  | 17.5 |  | 7.67 |  | 15.7 | 28.2 | 17 | 13.5 | 12.4 |  |  |  |  |  |  |  |  |  | 
CC(=O)Nc1cc(C(c2ccccc2)c2ccccc2)cc(C(c2ccccc2)c2ccccc2)c1C | > 100 | > 100 | > 100 | > 100 | > 100 | > 100 | > 100 | > 100 | > 100 |  | 6.39 | 14.7 | > 100 | > 100 | 6.22 | 3.28 | 28 | 6.81 | > 100 | 
Cc1ccc(C)c(NC(=O)C(=O)CC(=O)c2cccc3ccccc23)c1 |  | > 100 |  | > 100 |  | > 100 | > 100 | > 100 | > 100 | > 100 |  |  |  |  |  |  |  |  |  | 
CC(=O)C(CN(C)Cc1ccccc1)C(c1ccccc1)c1c(O)c2ccccc2oc1=O (stereo not drawn) |  | > 100 |  | > 100 |  | > 100 | > 100 | > 100 | > 100 | > 100 |  |  |  |  |  |  |  |  |  | 
Cc1cc(C(=O)N2CCN(C)CC2)c2c(=O)n(-c3ccccc3)c(=O)n(CC(O)CN3CCN(c4ncccn4)CC3)c2n1 (stereo not drawn) | > 100 | > 100 | > 100 | > 100 | > 100 | > 100 |  | > 100 | > 100 |  | > 100 | > 100 | > 100 |  | > 100 | > 100 | > 100 | > 100 | > 100 | 
COc1ccc2oc(-c3cc4cc(OC)ccc4o3)cc2c1 |  | > 100 |  | > 100 |  | > 100 | > 100 | > 100 |  | > 100 |  |  |  |  |  |  |  |  |  | 
COc1ccc(C2c3cc4c(c(OC)c3CC3OCC(=O)C32)OCO4)cc1OC (stereo not drawn) | 46.4 | 0.0181 | > 100 |  |  | > 100 | 46.9 |  |  | < 0.01 |  |  | < 0.01 | < 0.01 | < 0.01 | < 0.01 |  |  | < 0.01 | < 0.01
O=C(O)/C(=C/c1ccccc1[N+](=O)[O-])c1cccs1 |  | > 100 |  | > 100 |  | > 100 | > 100 | > 100 | > 100 |  |  |  |  |  |  |  |  |  |  | 
O=C(O)CN(CC(=O)O)c1ccccc1 | > 100 | > 100 | > 100 |  | > 100 | > 100 | > 100 | > 100 | > 100 | 83.7 |  |  |  |  |  |  |  |  |  | 
CC(=O)n1cc(CC(C)O)c(=O)[nH]c1=O (stereo not drawn) |  | > 100 |  |  |  | > 100 | > 100 | > 100 | > 100 |  |  |  |  |  |  |  |  |  |  | 
Cc1ccc(NC(C(=O)c2ccccc2)c2ccccc2)cc1 (stereo not drawn) | 7.79 |  | 12.7 | > 100 | 15.4 | 33.4 | > 100 | > 100 | 12.4 | 51.1 |  | 4.52 | 4 | 3.52 | 3.5 | 2.04 | 2.09 | 2.63 | 3.18 | 3.98
CC1(C)C(=O)CCC(=O)C(C)(C)C2=CC=C(O2)C(C)(C)C(=O)CCC(=O)C(C)(C)C2=CC=C1O2 |  | > 100 |  | > 100 |  |  | > 100 | > 100 | > 100 | > 100 |  |  |  |  |  |  |  |  |  | 
CC(C)(C)c1cc(Oc2ccc(C#N)c(C#N)c2)cc(C(C)(C)C)c1 |  | > 100 |  | > 100 |  | > 100 | > 100 | > 100 | > 100 | > 100 |  |  |  |  |  |  |  |  |  | 
O=[N+]([O-])c1ccc(N/N=C/c2ccccc2O)nc1 | > 100 | > 100 | > 100 | > 100 | > 100 | > 100 | 51.2 | > 100 | > 100 |  | 0.289 | 1.46 | 1.66 | 0.407 | 2.45 | 0.371 | > 100 | 3.03 | 1.35 | 
NC(=O)c1ccccc1NC(=O)C(=O)Nc1n[nH]c(N)n1 |  | > 100 |  | > 100 |  | > 100 | > 100 | > 100 | > 100 | > 100 |  |  |  |  |  |  |  |  |  | 
Cc1ccc(-n2nnc3c(sc4ccccc43)c2=O)cc1 | 8.71 | > 100 | > 100 | > 100 | > 100 | > 100 | > 100 | > 100 | > 100 |  | 63.5 | 68.7 | > 100 | 6.1 | 42.8 | 3.1 | 2.18 | 14.6 | 7.41 | 
